{
  "source": "patent US8247211B2",
  "about": "“Glycopeptide antibiotics” (American Cyanamid Company, priority 2001, dated 2012)",
  "assay_in_all_cases": "In vitro antibacterial evaluation: minimum inhibitory concentration (MIC), broth dilution method",
  "assay_type_in_all_cases": "cell-based",
  "key": {"Enterococcus sp.": {"test_system": "Enterococcus sp.", "summary_of_the_method": "(§1)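 Values are minimum inhibitory concentrations, meaning the smallest antibiotic concentration that stops growth of the organism. They come from broth dilution in Muller-Hinton II […] per NCCLS guidance (M7-A2), using 5×10^5 CFU/mL and concentrations from 64 to 0.06 μg/mL.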"}, "Escherichia coli": {"test_system": "Escherichia coli", "summary_of_the_method": "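NCCLS M7-A2 broth dilution with Mueller-Hinton II, testing 64-0.06 μg/mL antibiotic against 5×10^5 CFU/mL inocula. Test strains include recent methicillin-, penicillin- or vancomycin-resistant clinical isolates. MIC is the lowest concentration preventing growth.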"}, "Staphylococcus sp.": {"test_system": "Staphylococcus sp.", "conditions": "broth dilution, 18 hours at 35° C.", "summary_of_the_method": "as §1"}, "Streptococcus sp.": {"test_system": "Streptococcus sp.", "summary_of_the_method": "as §1"}},
  "data": [
    {"smiles": "CC(c1ccccc1)C1NC(=O)CNC(=O)C(CO)NC(=O)C(C(O)C2CNC(=N)N2C2OC(CO)C(O)C(O)C2O)NC(=O)C(C(O)C2CNC(=NC(=O)C(C)(C)C)N2)NC(=O)C(Cc2ccc(OC3OC(CO)C(OC4OC(CO)C(O)C(O)C4O)C(O)C3O)cc2)NC1=O", "note": "(stereo not drawn) [Example 155, Cyclo[glycyl-β-methylphenylalanyl-O-(4-O-hexopyranosylhexopyranosyl)tyrosyl-3-[2-[(2,2-dimethylpropanoyl)imino]imidazolidin-4-yl]seryl-3-(3-hexopyranosyl-2-iminoimidazolidin-4-yl)serylseryl]]", "values": [
      {"measurement": "MIC Enterococcus avium (GC 4558)", "setting": "Enterococcus sp.; Enterococcus avium (GC 4558), broth dilution, 18 hours at 35° C.", "result": "0.5 to 1", "unit": "µg/mL"},
      {"measurement": "MIC Enterococcus faecalis (ATCC 29212)", "setting": "Enterococcus sp.; Enterococcus faecalis (ATCC 29212), broth dilution, 18 hours at 35° C.", "result": "0.5 to 1", "unit": "µg/mL"},
      {"measurement": "MIC Enterococcus faecalis (GC 4554)", "setting": "Enterococcus sp.; Enterococcus faecalis (GC 4554), broth dilution, 18 hours at 35° C.", "result": "0.5 to 1", "unit": "µg/mL"},
      {"measurement": "MIC Enterococcus faecalis (GC 6189)", "setting": "Enterococcus sp.; Enterococcus faecalis (GC 6189), broth dilution, 18 hours at 35° C.", "result": 0.5, "unit": "µg/mL"},
      {"measurement": "MIC Enterococcus faecium (GC 2243)", "setting": "Enterococcus sp.; Enterococcus faecium (GC 2243), broth dilution, 18 hours at 35° C.", "result": "<0.5 to 1", "unit": "µg/mL"},
      {"measurement": "MIC Enterococcus faecium (GC 4556)", "setting": "Enterococcus sp.; Enterococcus faecium (GC 4556), broth dilution, 18 hours at 35° C.", "result": "1 to 2", "unit": "µg/mL"},
      {"measurement": "MIC Enterococcus faecium (GC 4557)", "setting": "Enterococcus sp.; Enterococcus faecium (GC 4557), broth dilution, 18 hours at 35° C.", "result": "1 to 2", "unit": "µg/mL"},
      {"measurement": "MIC Enterococcus faecalis (ATCC 29212)", "setting": "Enterococcus sp.; strain ATCC 29212", "result": "0.5 to 1", "unit": "µg/mL"},
      {"measurement": "MIC Enterococcus faecalis (GC 2242)", "setting": "Enterococcus sp.; strain GC 2242", "result": "0.5 to 1", "unit": "µg/mL"},
      {"measurement": "MIC Enterococcus faecium (GC 2243)", "setting": "Enterococcus sp.; strain GC 2243", "result": "<0.5 to 1", "unit": "µg/mL"},
      {"measurement": "MIC Enterococcus faecalis (GC 2691)", "setting": "Enterococcus sp.; strain GC 2691", "result": 0.5, "unit": "µg/mL"},
      {"measurement": "MIC Enterococcus faecalis (GC 3059)", "setting": "Enterococcus sp.; strain GC 3059", "result": 0.5, "unit": "µg/mL"},
      {"measurement": "MIC Enterococcus faecalis (GC 4554)", "setting": "Enterococcus sp.; strain GC 4554", "result": "0.5 to 1", "unit": "µg/mL"},
      {"measurement": "MIC Enterococcus faecium (GC 4556)", "setting": "Enterococcus sp.; strain GC 4556", "result": "1 to 2", "unit": "µg/mL"},
      {"measurement": "MIC Enterococcus faecium (GC 4557)", "setting": "Enterococcus sp.; strain GC 4557", "result": "1 to 2", "unit": "µg/mL"},
      {"measurement": "MIC Enterococcus avium (GC 4558)", "setting": "Enterococcus sp.; strain GC 4558", "result": "0.5 to 1", "unit": "µg/mL"},
      {"measurement": "MIC Enterococcus faecalis (GC 6189)", "setting": "Enterococcus sp.; strain GC 6189", "result": 0.5, "unit": "µg/mL"},
      {"measurement": "MIC Escherichia coli (ATCC 25922)", "setting": "Escherichia coli; strain ATCC 25922", "result": ">64", "unit": "µg/mL"},
      {"measurement": "MIC Escherichia coli (GC 4559)", "setting": "Escherichia coli; strain GC 4559", "result": ">64", "unit": "µg/mL"},
      {"measurement": "MIC Escherichi coli (GC 4560)", "setting": "Escherichia coli; strain GC 4560", "result": "0.5 to 2", "unit": "µg/mL"},
      {"measurement": "MIC Coagulase Negative Staphylococcus (GC 4547)", "setting": "Staphylococcus sp.; 5×10^5 CFU/mL", "result": "<0.5 to 2", "unit": "µg/mL"},
      {"measurement": "MIC Coagulase Negative Staphylococcus (GC 4548)", "setting": "Staphylococcus sp.; 5×10^5 CFU/mL", "result": "<0.5 to 1", "unit": "µg/mL"},
      {"measurement": "MIC Coagulase Negative Staphylococcus (GC 4549)", "setting": "Staphylococcus sp.; 5×10^5 CFU/mL", "result": "<0.5 to 1", "unit": "µg/mL"},
      {"measurement": "MIC Coagulase Negative Staphylococcus (GC 4551)", "setting": "Staphylococcus sp.; 5×10^5 CFU/mL", "result": "<0.5 to 1", "unit": "µg/mL"},
      {"measurement": "MIC Coagulase Negative Staphylococcus (GC 6257)", "setting": "Staphylococcus sp.; 5×10^5 CFU/mL", "result": 1, "unit": "µg/mL"},
      {"measurement": "MIC Coagulase Negative Staphylococcus (ID-3941)", "setting": "Staphylococcus sp.; 5×10^5 CFU/mL", "result": "<0.5", "unit": "µg/mL"},
      {"measurement": "MIC Staphylococcus aureus (GC 3051)", "setting": "Staphylococcus sp.; 5×10^5 CFU/mL", "result": 0.5, "unit": "µg/mL"},
      {"measurement": "MIC Staphylococcus aureus (GC 3053)", "setting": "Staphylococcus sp.; 5×10^5 CFU/mL", "result": 0.5, "unit": "µg/mL"},
      {"measurement": "MIC Staphylococcus aureus (GC 4545)", "setting": "Staphylococcus sp.; 5×10^5 CFU/mL", "result": "0.5 to 1", "unit": "µg/mL"},
      {"measurement": "MIC Staphylococcus haemolyticus (GC 4546)", "setting": "Staphylococcus sp.; 5×10^5 CFU/mL", "result": "<0.5 to 1", "unit": "µg/mL"},
      {"measurement": "MIC Staphylococcus aureus (GC 3051)", "setting": "Staphylococcus sp.; strain GC 3051", "result": 0.5, "unit": "µg/mL"},
      {"measurement": "MIC Staphylococcus aureus (GC 3053)", "setting": "Staphylococcus sp.; strain GC 3053", "result": 0.5, "unit": "µg/mL"},
      {"measurement": "MIC Staphylococcus aureus (GC 4545)", "setting": "Staphylococcus sp.; strain GC 4545", "result": "0.5 to 1", "unit": "µg/mL"},
      {"measurement": "MIC Staphylococcus haemolyticus (GC 4546)", "setting": "Staphylococcus sp.; strain GC 4546", "result": "<0.5 to 1", "unit": "µg/mL"},
      {"measurement": "MIC Coagulase Negative Staphylococcus (GC 4547)", "setting": "Staphylococcus sp.; strain GC 4547", "result": "<0.5 to 2", "unit": "µg/mL"},
      {"measurement": "MIC Coagulase Negative Staphylococcus (GC 4548)", "setting": "Staphylococcus sp.; strain GC 4548", "result": "<0.5 to 1", "unit": "µg/mL"},
      {"measurement": "MIC Coagulase Negative Staphylococcus (GC 4549)", "setting": "Staphylococcus sp.; strain GC 4549", "result": "<0.5 to 1", "unit": "µg/mL"},
      {"measurement": "MIC Coagulase Negative Staphylococcus (GC 4551)", "setting": "Staphylococcus sp.; strain GC 4551", "result": "<0.5 to 1", "unit": "µg/mL"},
      {"measurement": "MIC Coagulase Negative Staphylococcus (GC 6257)", "setting": "Staphylococcus sp.; strain GC 6257", "result": 1, "unit": "µg/mL"},
      {"measurement": "MIC Coagulase Negative Staphylococcus (ID-3941)", "setting": "Staphylococcus sp.; strain ID-3941", "result": "<0.5", "unit": "µg/mL"},
      {"measurement": "MIC Streptococcus pneumoniae (ATCC 6301)", "setting": "Streptococcus sp.; strain ATCC 6301", "result": 0.12, "unit": "µg/mL"},
      {"measurement": "MIC Streptococcus pneumoniae (GC 1894)", "setting": "Streptococcus sp.; strain GC 1894", "result": 0.12, "unit": "µg/mL"},
      {"measurement": "MIC Streptococcus pyogenes (GC 4563)", "setting": "Streptococcus sp.; strain GC 4563", "result": ">0.12", "unit": "µg/mL"},
      {"measurement": "MIC Streptococcus agalactiae (GC 4564)", "setting": "Streptococcus sp.; strain GC 4564", "result": "<0.12", "unit": "µg/mL"},
      {"measurement": "MIC Streptococcus pyogenes (ID-3187)", "setting": "Streptococcus sp.; strain ID-3187", "result": "<0.5", "unit": "µg/mL"}
    ]}
  ]
}
